Read-outs that look alike come from different tables or passages of the source.

As a reminder, the EC50 is the concentration that produces a half-maximal response.

For this assay, the system named is genotype A, "Long" strain RSV. Put plainly: RSV-A in vitro cytoprotection assay in HEp-2 cells (ATPlite readout of cell viability). The following applies: genotype A “Long” strain RSV, cytoprotection, read-out: Human RSV-A (“Long” strain) EC50. The assay is classed as cell-based, Human respiratory syncytial virus. An outline of the steps:
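HEp-2 cells (8,000/well) given 2-fold compound dilutions in duplicate, then infected with RSV-A Long strain stock; viability read by ATPlite luminescence after 4 days. EC50 derived from cytoprotection; cytotoxicity measured on parallel uninfected plate.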
A general note: Cellular ATP, detected with luciferase, serves as a proxy for viable cell number.

The mark [1] stands for this setting: human respiratory syncytial virus, HEp-2, HEp-2 cells.

As for `COc1ccc(-c2cccc(C(=O)N3CCc4cc(C(=O)NC5CC5)sc4-c4ccccc43)n2)cn1` [Example 65], the EC50 under setting [1] is less than 400 nM.
Turning to `Cc1cccc(F)c1NC(=O)c1cc2c(s1)-c1ccccc1N(C(=O)c1cccc(N3CC4CC5CC(C4)CC3C5)n1)CC2` [Example 442], the EC50 under setting [1] is greater than 800 nM.
Same read-out and setting: the figure for `O=C(NC1CC1)c1cc2c(s1)-c1ccccc1N(C(=O)c1cccc(NCC3CCOC3)n1)CC2` (centres unmarked) [Example 291] is greater than 800 nM; for `Cc1cccc(F)c1NC(=O)c1cc2c(s1)-c1ccccc1N(C(=O)c1cccc(N3CCCN(S(C)(=O)=O)c4ccccc43)n1)CC2` [Example 377] it is greater than 800 nM; for `Cc1cccc(F)c1NC(=O)c1cc2c(s1)-c1ccccc1N(C(=O)c1cccc(N3CCCCC(F)(F)C3)n1)CC2` [Example 445] it is less than 400 nM.
Same read-out and setting: the result for `O=C(NC1CC1)c1cc2c(s1)-c1ccccc1N(C(=O)c1cccc(C3=CCNCC3)n1)CC2` [Example 54] reads greater than 800 nM; that for `COC[C@H]1CCCN1c1cccc(C(=O)N2CCc3cc(C(=O)Nc4c(C)cccc4F)sc3-c3ccc(F)cc32)n1` [Example 490], less than 400 nM.
As for `Cc1cccc(F)c1NC(=O)c1cc2c(s1)-c1ccccc1N(C(=O)c1cccc(-c3c[nH]c4ncccc34)n1)CC2` [Example 243], the EC50 under setting [1] was less than 400 nM.
As to `Cc1cccc(F)c1NC(=O)c1cc2c(s1)-c1ccccc1N(C(=O)c1cccc(NC(C)CS(C)(=O)=O)n1)CC2` (centres unmarked) [Example 464], the concentration giving a half-maximal response (EC50) under setting [1] is greater than 800 nM.
Same read-out and setting: the result for `O=C(NC1CC1)c1cc2c(s1)-c1ccccc1N(C(=O)c1cccc(N3CCC4(CC3)COC4)n1)CC2` [Example 18] reads 400 to 800 nM; that for `O=C(NC1CC1)c1cc2c(s1)-c1ccccc1N(C(=O)c1cccc(-c3csc(N4CCOCC4)n3)n1)CC2` [Example 167], greater than 800 nM; that for `O=C(Nc1cc2c(s1)-c1ccccc1N(C(=O)c1cccc(N3CCOc4ccccc4C3)n1)CC2)C1CC1` [Example 314], greater than 800 nM.
Turning to `Cc1cccc(F)c1NC(=O)c1cc2c(s1)-c1ccccc1N(C(=O)c1cccc(-c3ccc4c(c3)CNC4=O)n1)CC2` [Example 194], the EC50 under setting [1] fell in the range of 400 to 800 nM.
The same measure, in the same setting: the result for `Cc1cccc(F)c1NC(=O)c1cc2c(s1)-c1ccccc1N(C(=O)c1cccc(-c3cnn(Cc4ccccc4)c3-c3ccccn3)n1)CC2` [Example 232] reads greater than 800 nM; that for `COc1ncccc1Oc1cccc(C(=O)N2CCc3cc(C(=O)NC4CC4)sc3-c3ccccc32)n1` [Example 394], greater than 800 nM.
The same measure, in the same setting: the figure for `Cc1cccc(F)c1NC(=O)c1cc2c(s1)-c1ccccc1N(C(=O)c1cccc(N3C[C@@H](NC(=O)OC(C)(C)C)C[C@@H]3C)n1)CC2` [Example 389] is less than 400 nM.
On the same count and under the same terms, the figure for `COc1ncccc1Nc1cccc(C(=O)N2CCc3cc(C(=O)NC4CC4)sc3-c3ccccc32)n1` [Example 410] is greater than 800 nM; for `O=C(NC1CC1)c1cc2c(s1)-c1ccccc1N(C(=O)c1cccc(N3CCOCC3)c1)CC2` [Example 4] it is greater than 800 nM.
Turning to `Cc1cccc(F)c1NC(=O)c1cc2c(s1)-c1ccccc1N(C(=O)c1cccc(-c3ccc4ccc(=O)[nH]c4c3)n1)CC2` [Example 191], the EC50 under setting [1] is greater than 800 nM.
The same measure, in the same setting: the figure for `O=C(Nc1ncc2c(n1)-c1ccccc1N(C(=O)c1cccc(N3CCCOCC3)n1)CC2)C1CC1` [Example 111] is greater than 800 nM; for `CC(C)n1nccc1-c1cccc(C(=O)N2CCc3cc(C(=O)Nc4ccccc4N)sc3-c3ccccc32)n1` [Example 241] it is less than 400 nM.
On the same count and under the same terms, the result for `O=C(NC1CC1)c1cc2c(s1)-c1ccccc1N(C(=O)c1ccc3ccc(-c4ccncc4)nc3c1)CC2` [Example 187] reads greater than 800 nM; that for `O=C(NC1CC1)c1cc2c(s1)-c1ccccc1N(C(=O)c1cccc(N3CCOc4ccccc4C3)n1)CC2` [Example 32], less than 400 nM; that for `O=C(NC1CC1)c1cc2c(s1)-c1ccccc1N(C(=O)c1cccc(NC3CCOCC3)n1)CC2` [Example 61], greater than 800 nM.
The same measure, in the same setting: the figure for `Cc1noc([C@H]2C[C@@H](O)CN2c2cccc(C(=O)N3CCc4cc(C(=O)Nc5c(C)cccc5F)sc4-c4ccccc43)n2)n1` [Example 496] is greater than 800 nM.
Regarding `COCCn1cc(-c2cccc(C(=O)N3CCc4cc(C(=O)Nc5c(C)cccc5F)sc4-c4ccccc43)n2)c(C2CC2)n1` [Example 226], the EC50 under setting [1] was greater than 800 nM.
As to `O=C(NC1CC1)c1cc2c(s1)-c1ccccc1N(C(=O)c1cccc(C3=CCN(C4COC4)CC3)n1)CC2` [Example 56], the EC50 under setting [1] is greater than 800 nM.
Same read-out and setting: the figure for `O=C(NC1CC1)c1cc2c(s1)-c1ccccc1N(C(=O)c1cc(N3CCOCC3)ncn1)CC2` [Example 49] is greater than 800 nM; for `Cc1cccc(F)c1NC(=O)c1cc2c(s1)-c1ccccc1N(C(=O)c1cccc(N3CCC[C@@H]3c3ccccn3)n1)CC2` [Example 484] it is less than 400 nM.
On to `O=C(NC1CC1)c1cc2c(s1)-c1ccccc1N(C(=O)c1cccc(-c3cnn(C4CCOCC4)c3)n1)CC2` [Example 150], for which, under “HEp-2 cells”, the concentration giving a half-maximal response (EC50) was greater than 800 nM.
On to `Cc1cccc(F)c1NC(=O)c1cc2c(s1)-c1ccccc1N(C(=O)c1cccc(N3CCCN(S(=O)(=O)C4CC4)CC3)n1)CC2` [Example 382], for which the EC50 under setting [1] was less than 400 nM.
The same measure, in the same setting: the result for `Cc1cccc(F)c1NC(=O)c1cc2c(s1)-c1ccccc1N(C(=O)c1cccc(-c3cn(CC(N)=O)nc3C3CC3)n1)CC2` [Example 230] reads greater than 800 nM; that for `Cc1cccc(F)c1NC(=O)c1cc2c(s1)-c1ccccc1N(C(=O)c1cccc(N3C(=O)Cc4ccccc43)n1)CC2` [Example 451], greater than 800 nM; that for `COCC(Nc1cccc(C(=O)N2CCc3cc(C(=O)Nc4c(C)cccc4F)sc3-c3ccccc32)n1)C1CC1` (centres unmarked) [Example 420], 400 to 800 nM.
`Cc1cccc(F)c1NC(=O)c1ccc2c(c1)CCN(C(=O)c1cccc(N3CCCOCC3)n1)c1ccccc1-2` [Example 396]: under setting [1], the EC50 is greater than 800 nM.
Consider `CC(=O)N1CCCN(c2cccc(C(=O)N3CCc4cc(C(=O)Nc5c(C)cccc5F)sc4-c4ccccc43)n2)CC1` [Example 387], for which the EC50 under setting [1] is less than 400 nM.
Same read-out and setting: the result for `Cc1cccc(F)c1NC(=O)c1cc2c(s1)-c1ccccc1N(C(=O)c1cccc(N3CCCN(S(C)(=O)=O)CC3)n1)CC2` [Example 384] reads less than 400 nM; that for `Cc1ccc2c(-c3cccc(C(=O)N4CCc5cc(C(=O)Nc6c(C)cccc6F)sc5-c5ccccc54)n3)cn(C(=O)OC(C)(C)C)c2c1` [Example 246], greater than 800 nM; that for `Cc1cccc(F)c1NC(=O)c1cc2c(s1)-c1ccccc1N(C(=O)c1cccc(-c3ccc4ncccc4c3)n1)CC2` [Example 188], less than 400 nM.
Same read-out and setting: the figure for `Cc1cccc(F)c1NC(=O)c1cc2c(s1)-c1ccccc1N(C(=O)c1cccc(-c3cn(C(=O)OC(C)(C)C)c4c(Cl)cccc34)n1)CC2` [Example 250] is 400 to 800 nM.
Consider `O=C(NC1CC1)c1cc2c(s1)-c1ccccc1N(C(=O)c1cccc(N3CCOc4ccccc4C3=O)n1)CC2` [Example 414], for which the EC50 under setting [1] is greater than 800 nM.
The same measure, in the same setting: the result for `Cc1cccc(F)c1NC(=O)c1cc2c(s1)-c1ccccc1N(C(=O)c1cccc(-c3c[nH]c4c(Cl)cccc34)n1)CC2` [Example 251] reads less than 400 nM.
`Cc1cccc(F)c1NC(=O)c1cc2c(s1)-c1ccccc1N(C(=O)c1cccc(-n3ccnc3C3CCC3)n1)CC2` [Example 147]: under setting [1], the EC50 was less than 400 nM.
`CNC(=O)CCN(C)c1cccc(C(=O)N2CCc3cc(C(=O)Nc4c(C)cccc4F)sc3-c3ccccc32)n1` [Example 324]: the EC50 under setting [1] was 400 to 800 nM.
In the case of `Cc1cc(-c2cccc(C(=O)N3CCc4cc(C(=O)Nc5ccccc5N)sc4-c4ccccc43)n2)n(C)n1` [Example 239], the EC50 under setting [1] was greater than 800 nM.
Still for that read-out and setting: the result for `O=C(NCc1ccccn1)c1cc2c(s1)-c1ccccc1N(C(=O)c1cccc(N3CCOc4ccccc4C3)n1)CC2` [Example 306] reads less than 400 nM; that for `O=C(NC1CC1)c1cc2c(s1)-c1ccccc1N(C(=O)c1cccc(-c3cnc(N4CCOCC4)c(F)c3)n1)CC2` [Example 92], 400 to 800 nM; that for `O=C(NC1CC1)c1cc2c(s1)-c1ccccc1N(C(=O)c1ccc(F)c(N3CCCOCC3)n1)CC2` [Example 45], less than 400 nM.
The same measure, in the same setting: the figure for `Cc1cccc(F)c1NC(=O)c1cc2c(s1)-c1ccccc1N(C(=O)c1cccc(N3CCC[C@H](N)C3=O)n1)CC2` [Example 478] is greater than 800 nM; for `O=C(Nc1ccccn1)c1cc2c(s1)-c1ccccc1N(C(=O)c1cccc(N3CCOc4ccccc4C3)n1)CC2` [Example 300] it is greater than 800 nM.
As to `Cc1cccc(F)c1NC(=O)c1cc2c(s1)-c1ccccc1N(C(=O)c1cccc(NC[C@H]3CCCO3)n1)CC2` [Example 460], the EC50 under setting [1] was less than 400 nM.
Same read-out and setting: the figure for `COc1ccc2c(ccn2-c2cccc(C(=O)N3CCc4cc(C(=O)Nc5c(C)cccc5F)sc4-c4ccccc43)n2)c1` [Example 120] is less than 400 nM; for `Cc1cccc(F)c1NC(=O)c1cc2c(s1)-c1ccccc1N(C(=O)c1cccc(N3CCS(=O)(=O)c4c(F)cccc4C3)n1)CC2` [Example 435] it is less than 400 nM; for `COc1ccc(-c2cccc(C(=O)N3CCc4cc(C(=O)NCC5CC5)sc4-c4ccccc43)n2)cn1` [Example 96] it is 400 to 800 nM.
As for `Cc1cccc(F)c1NC(=O)c1cc2c(s1)-c1c(F)cccc1N(C(=O)c1cccc(-c3cn[nH]c3C3CC3)n1)CC2` [Example 171], the concentration giving a half-maximal response (EC50) under setting [1] is less than 400 nM.
Same read-out and setting: the result for `Cn1ccc(-c2cccc(C(=O)N3CCc4cc(C(=O)NC5CC5)sc4-c4ccccc43)n2)cc1=O` [Example 162] reads greater than 800 nM; that for `Cc1cccc(F)c1NC(=O)c1cc2c(s1)-c1ccccc1N(C(=O)c1cccc(-c3cncn3C3CC3)n1)CC2` [Example 233], less than 400 nM.
Take `Cc1cccc(F)c1NC(=O)c1cc2c(s1)-c1ccccc1N(C(=O)c1cccc(N3CC4(CCS4(=O)=O)C3)n1)CC2` [Example 472]: under setting [1], the EC50 was greater than 800 nM.
On the same count and under the same terms, the figure for `O=C(NC1CCOCC1)c1cc2c(s1)-c1ccccc1N(C(=O)c1cccc(-c3c[nH]nc3C3CC3)n1)CC2` [Example 180] is less than 400 nM.

(Values after US10759816B2, “Heterocyclic compounds as RSV inhibitors” (Enanta Pharmaceuticals, Inc., priority 2016, dated 2020).)
